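Five compound concentrations were applied to cells in 96-well plates for 48 hours; endpoints were derived by simple linear interpolation of the resulting dose-response curve. TGI is the concentration that stops growth completely.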
Key:
Assay in all cases: inhibition of tumour cell growth, NCI panel, 48 h
SK-OV-3 ovarian = test system: SK-OV-3 ovarian
M19-MEL melanoma = test system: M19-MEL melanoma
CCRF-CEM leukemia = test system: CCRF-CEM leukemia
RXF 393 renal = test system: RXF 393 renal
SK-MEL-28 melanoma = test system: SK-MEL-28 melanoma
OVCAR-5 ovarian = test system: OVCAR-5 ovarian
SF-295 CNS = test system: SF-295 CNS
IGROV1 ovarian = test system: IGROV1 ovarian
A549 NSCLC = test system: A549 NSCLC
A498 renal = test system: A498 renal
EKVX NSCLC = test system: EKVX NSCLC
U251 CNS = test system: U251 CNS
HT29 colon = test system: HT29 colon
SF-268 CNS = test system: SF-268 CNS
UO-31 renal = test system: UO-31 renal
SNB-78 CNS = test system: SNB-78 CNS
KM12 colon = test system: KM12 colon
TK-10 renal = test system: TK-10 renal
SNB-19 CNS = test system: SNB-19 CNS
SR leukemia = test system: SR leukemia
M14 melanoma = test system: M14 melanoma
UACC-257 melanoma = test system: UACC-257 melanoma
NCI-H522 lung = test system: NCI-H522 lung
DMS 273 small cell lung = test system: DMS 273 small cell lung
HL-60(TB) leukemia = test system: HL-60(TB) leukemia
HOP-62 NSCLC = test system: HOP-62 NSCLC
ACHN renal = test system: ACHN renal
HOP-92 NSCLC = test system: HOP-92 NSCLC
NCI-H23 lung = test system: NCI-H23 lung
MOLT-4 leukemia = test system: MOLT-4 leukemia
OVCAR-8 ovarian = test system: OVCAR-8 ovarian
NCI-H460 lung = test system: NCI-H460 lung
DMS 114 small cell lung = test system: DMS 114 small cell lung
HCT-15 colon = test system: HCT-15 colon
K-562 leukemia = test system: K-562 leukemia
SK-MEL-2 melanoma = test system: SK-MEL-2 melanoma
786-0 renal = test system: 786-0 renal
SF-539 CNS = test system: SF-539 CNS
SNB-75 CNS = test system: SNB-75 CNS
HCT-116 colon = test system: HCT-116 colon
DLD-1 colon = test system: DLD-1 colon
LXFL 529 NSCLC = test system: LXFL 529 NSCLC
OVCAR-3 ovarian = test system: OVCAR-3 ovarian
UACC-62 melanoma = test system: UACC-62 melanoma
OVCAR-4 ovarian = test system: OVCAR-4 ovarian
HCC-2998 colon = test system: HCC-2998 colon
MALME-3M melanoma = test system: MALME-3M melanoma
KM20L2 colon = test system: KM20L2 colon
SW-620 colon = test system: SW-620 colon
CAKI-1 renal = test system: CAKI-1 renal
RPMI-8226 leukemia = test system: RPMI-8226 leukemia
LOX IMVI melanoma = test system: LOX IMVI melanoma
COLO 205 colon = test system: COLO 205 colon
SK-MEL-5 melanoma = test system: SK-MEL-5 melanoma
SN12C renal = test system: SN12C renal
NCI-H226 lung = test system: NCI-H226 lung

Measured: TGI

COC1=C(OC)C(O)(c2ccccc2)C1=O (stereo not given)
85.7 µM: TK-10 renal
not listed: DMS 114 small cell lung | HCT-15 colon | K-562 leukemia | SK-MEL-2 melanoma | 786-0 renal | SF-539 CNS | SNB-75 CNS | HCT-116 colon | DLD-1 colon | LXFL 529 NSCLC | OVCAR-3 ovarian | UACC-62 melanoma | OVCAR-4 ovarian | HCC-2998 colon | MALME-3M melanoma | KM20L2 colon | SW-620 colon | CAKI-1 renal | RPMI-8226 leukemia | LOX IMVI melanoma | COLO 205 colon | SK-MEL-5 melanoma | SN12C renal | NCI-H226 lung
> 100 µM: all other assays above

N#Cc1ccccc1NC(=O)/C(=N\Nc1ccc([N+](=O)[O-])cc1)C1C(=O)NC(=O)NC1=O
74.8 µM: HOP-92 NSCLC
not listed: SF-295 CNS | HT29 colon | SR leukemia | DMS 273 small cell lung | SN12C renal | NCI-H226 lung
> 100 µM: all other assays above

O=C(c1nc2ccc(Cl)cc2[nH]c1=O)C(O)c1ccccc1 (stereo not given)
25.4 µM: CCRF-CEM leukemia
68.8 µM: HL-60(TB) leukemia
not listed: RXF 393 renal | U251 CNS | SNB-75 CNS
> 100 µM: all other assays above
